Numbers after ± are expanded uncertainties.
Assays:
[1] = mn = molality of the nth substance listed, in mol/kg; settings: 100 kPa, Liquid; for viscosity: Capillary tube (Ostwald / Ubbelohde) method; for mass density: Vibrating tube method
[2] = 100 kPa, Liquid, Capillary tube (Ostwald / Ubbelohde) method

CCCCCCCCn1cc[n+](C)c1.[Br-] [1-methyl-3-octylimidazolium bromide] + O
[1]
Settings | mass density, m1 = 0.0035 [kg/m3] | mass density, m1 = 0.0111 [kg/m3] | mass density, m1 = 0.0185 [kg/m3] | viscosity, m1 = 0.0035 [mPa·s] | viscosity, m1 = 0.0111 [mPa·s] | viscosity, m1 = 0.0185 [mPa·s]
288.15 K | 999.275 ± 0.12 | 999.611 ± 0.12 | 999.913 ± 0.11 | 1.146 ± 0.024 | 1.151 ± 0.024 | 1.154 ± 0.024
293.15 K | 998.364 ± 0.12 | 998.697 ± 0.11 | 998.983 ± 0.11 | 1.006 ± 0.021 | 1.013 ± 0.021 | 1.021 ± 0.021
298.15 K | 997.197 ± 0.12 | 997.499 ± 0.11 | 997.781 ± 0.11 | 0.895 ± 0.019 | 0.9 ± 0.019 | 0.904 ± 0.019
303.15 K | 995.792 ± 0.12 | 996.09 ± 0.11 | 996.32 ± 0.11 | 0.8 ± 0.017 | 0.805 ± 0.017 | 0.807 ± 0.017
308.15 K | 994.141 ± 0.11 | 994.373 ± 0.11 | 994.59 ± 0.11 | 0.721 ± 0.015 | 0.723 ± 0.015 | 0.728 ± 0.015
313.15 K | 992.331 ± 0.11 | 992.622 ± 0.11 | 992.876 ± 0.11 | 0.655 ± 0.014 | 0.659 ± 0.014 | 0.66 ± 0.014

O [water]
[2]
Settings | viscosity [mPa·s]
288.15 K | 1.139 ± 0.024
293.15 K | 1.002 ± 0.021
298.15 K | 0.89 ± 0.019
303.15 K | 0.798 ± 0.017
308.15 K | 0.719 ± 0.015
313.15 K | 0.653 ± 0.014

O [water] + CCCCCCCCn1cc[n+](C)c1.[Br-]
[1], m2 = 0
Settings | viscosity [mPa·s]
288.15 K | 1.139 ± 0.024
293.15 K | 1.002 ± 0.021
298.15 K | 0.89 ± 0.019
303.15 K | 0.798 ± 0.017
308.15 K | 0.719 ± 0.015
313.15 K | 0.653 ± 0.014
